Measurements taken from article PMC8507260, “A2E-induced inflammation and angiogenesis in RPE cells in vitro are modulated by PPAR-α, -β/δ, -γ, and RXR antagonists and by norbixin” (Aging (Albany NY), 2021).

How the values were obtained:
PPAR-β/δ = experiment: Transactivation of over-expressed PPAR-β/δ, luciferase reporter in porcine RPE cells; assay type: cell-based, pig; conditions: for transactivation of over-expressed PPAR-β/δ by the compound alone: vs DMSO control, A2E 20 μM, NBX increasing concentrations
Procedure: Then the effects of A2E on the endogenous PPAR transactivation in porcine RPE cells were investigated by means of a luciferase assay. […] The level of transactivation of PPAR-α, -β/δ, or -γ isoforms by A2E was determined by co-transfection of porcine RPE cells with a plasmid expressing each of the full-length PPAR isoforms and a plasmid expressing luciferase under the control of the PPAR response element. […] All usual chemicals, primers, and HX531 were from Sigma (St. Louis, MO, USA). Reagents for cell culture, transfection and quantitative RT-PCR were from Thermo Fisher Scientific (Waltham, MA, USA). RNA extraction NucleoSpin® RNA kit was from Macherey Nagel (Düren, Germany). ECL prime and PVDF membrane were from Amersham GE Healthcare (Buckinghamshire, UK). Primary antibodies against the following proteins were used: GAPDH (Santa Cruz Biotechnology, Inc, Dallas, TX, USA); pAKT, AKT, pERK and ERK (Cell Signaling, Danvers, MA, USA). Secondary antibodies were from Jackson ImmunoResearch (Cambridgeshire, UK). […] Cignal Pathway Reporter Assay Kits were from QIAGEN (Frederick, MD, USA). The Dual-Luciferase Reporter Assay System was purchased from Promega (Madison, WI, USA). pcDNA 3.1 (+)-PPARα and pcDNA 3.1 (+)-PPARβ/δ (pig sequence) were purchased from Genscript (Piscataway, NJ, USA). pCMV6-XL4-PPARγ (human sequence) was purchased from Origene (Rockville, MD, USA).
(§1) After one week in culture, cells were trypsinized and transferred to a 96-well plate at a density of 6 × 10^4 cells/cm^2 in DMEM2%FCS. The next day, cells were transfected using the Cignal Reporter Assay Kits for PPAR, RXR, AP-1 and NF-κB, according to the manufacturer’s specifications. To measure the specific activation of PPAR isoforms, cells were also co-transfected with PPAR-α, PPAR-β/δ or PPAR-γ expression vectors. Transfection was performed with Lipofectamine and Plus Reagent in serum-free medium. 3 h after the transfection, the medium was replaced and treatments with the molecules to assay were performed. Luciferase activity was measured the next day using the Dual-Luciferase Reporter Assay System. The measurements were performed with a luminometer (Infinite M1000 from Tecan, Mannedorf, Switzerland). Firefly: Renilla activity ratios were calculated for each condition and ratios from transcription factor-responsive reporter transfections were divided by ratios from negative control transfections to obtain relative luciferase unit, as described by the manufacturer. At least 3 independent transfections were performed in triplicate for each condition.

IL-18 = IL-18 mRNA expression by quantitative RT-PCR in porcine RPE cells; assay type: cell-based
Procedure: Pig eyes were obtained from a local slaughterhouse and transported to the laboratory in ice-cold Ringer solution. After removal of the anterior segment of the eye, the vitreous and neural retina was separated from the RPE and removed. The eyecup was washed twice with phosphate buffer saline (PBS), filled with trypsin (0.25% in PBS) and incubated at 37°C for 1.5 h. RPE cells were harvested by gently pipetting, centrifuged to remove trypsin and re-suspended in Dulbecco’s Modified Eagle Medium (DMEM) supplemented with 20% (v/v) foetal-calf serum (DMEM20%FCS) and 0.1% gentamycin. Cells were seeded into 60 mm diameter Petri dishes, cultured in an atmosphere of 5% CO2/95% air at 37°C, and supplied with fresh medium after 24 hours and 4 days in vitro. For experiments aimed at measuring mRNA or protein expression in RPE, cells were trypsinized after one week in culture and transferred to 24-well or 6-well plates at a density of 1.5 × 10^5 cells/cm^2 in DMEM2%FCS. Norbixin or agonists were added to the medium 24 h after seeding, and antagonists were added to the medium 24 h later. A2E treatment was performed during 19 h before cellular sample preparation. […]
Total RNA was extracted using the NucleoSpin® RNA kit according to manufacturer’s instructions. […] The relative mRNA expression was calculated using the comparative threshold method (Ct-method) with GAPDH for normalization. […]

PPAR-α = experiment: Transactivation of over-expressed PPAR-α, luciferase reporter in porcine RPE cells; assay type: cell-based, pig; conditions: for transactivation of over-expressed PPAR-α by the compound alone: vs DMSO control, A2E 20 μM, NBX increasing concentrations
Procedure: First, we evaluated the binding profile of A2E to all three isoforms of PPAR. […] Then the effects of A2E on the endogenous PPAR transactivation in porcine RPE cells were investigated by means of a luciferase assay. […] The level of transactivation of PPAR-α, -β/δ, or -γ isoforms by A2E was determined by co-transfection of porcine RPE cells with a plasmid expressing each of the full-length PPAR isoforms and a plasmid expressing luciferase under the control of the PPAR response element. […]. All usual chemicals, primers, and HX531 were from Sigma (St. Louis, MO, USA). Reagents for cell culture, transfection and quantitative RT-PCR were from Thermo Fisher Scientific (Waltham, MA, USA). RNA extraction NucleoSpin® RNA kit was from Macherey Nagel (Düren, Germany). ECL prime and PVDF membrane were from Amersham GE Healthcare (Buckinghamshire, UK). Primary antibodies against the following proteins were used: GAPDH (Santa Cruz Biotechnology, Inc, Dallas, TX, USA); pAKT, AKT, pERK and ERK (Cell Signaling, Danvers, MA, USA). Secondary antibodies were from Jackson ImmunoResearch (Cambridgeshire, UK). […] Cignal Pathway Reporter Assay Kits were from QIAGEN (Frederick, MD, USA). The Dual-Luciferase Reporter Assay System was purchased from Promega (Madison, WI, USA). pcDNA 3.1 (+)-PPARα and pcDNA 3.1 (+)-PPARβ/δ (pig sequence) were purchased from Genscript (Piscataway, NJ, USA). pCMV6-XL4-PPARγ (human sequence) was purchased from Origene (Rockville, MD, USA).
as §1

With CC(/C=C/C=C(C)/C=C/C(=O)O)=C\C=C\C=C(C)\C=C\C=C(C)\C=C\C(=O)O (stereo in doubt) [norbixin, 9’-cis-norbixin] the “effect on over-expressed PPAR-β/δ transactivation induced by A2E” value (PPAR-β/δ; A2E 20 μM + NBX 20 μM) was “fully abolished”, the “inhibition of PPAR-β/δ transactivation induced by GW0742” value (PPAR-β/δ; GW0742 at 1 nM, NBX 20 μM) was “did not inhibit significantly” and the “transactivation of over-expressed PPAR-β/δ by the compound alone” value (PPAR-β/δ) was “did not demonstrate any transactivation activity”. The “effect on IL-18 expression induced by A2E” value (IL-18; NBX 20 μM + A2E 30 μM, PPAR antagonists) was “not inhibited”, the “effect on over-expressed PPAR-α transactivation induced by A2E” value (PPAR-α; A2E 20 μM + NBX 20 μM) was “fully abolished” and the “inhibition of PPAR-α transactivation induced by GW9578” value (PPAR-α; GW9578 at 10 nM, NBX 20 μM) was “did not inhibit significantly”. The “transactivation of over-expressed PPAR-α by the compound alone” value (PPAR-α) was “did not demonstrate any transactivation activity”.

CC(C=CC1=C(C)CCCC1(C)C)=CC=CC(C)=Cc1cc(C=CC=C(C)C=CC2=C(C)CCCC2(C)C)cc[n+]1CCO [A2E, N-retinylidene-N-retinylethanolamine] was tested, and the “transactivation of over-expressed PPAR-β/δ by the compound alone” value (PPAR-β/δ) was “induced the transactivation”, the “effect of the compound alone on IL-18 mRNA expression” value (IL-18; A2E 30 μM vs DMSO control) was “induced by A2E” and the “transactivation of over-expressed PPAR-α by the compound alone” value (PPAR-α) was “induced the transactivation”.
